According to US10865208B2, “ATG7 inhibitors and the uses thereof” (Millennium Pharmaceuticals, Inc., priority 2016, dated 2020):
pIC50: −log10 of the molar value.

Molecular target: recombinant human His-ATG7 enzyme (Homo sapiens (Human), UniProt O95352)
Test: ATG7 Enzyme Assay (HTRF/FRET, ATG3-GST and Flag-Gabarap)
Format: biochemical
Conditions: for inhibition at 0.123 µM: Concentration 0.123 μM; for inhibition at 0.123 µM / inhibition at 0.111 µM: read-out: Percent Inhibition; for inhibition at 0.111 µM: Concentration 0.111 μM
Outline: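 HTRF read-out after 2 h at 24° C, using Eu-cryptate anti-Flag and XL-APC anti-GST antibodies in an EDTA stop buffer. The preceding 105 min, 24° C reaction (pH 7.5) held 10 μM ATP, 5 nM each ATG3-GST and Flag-Gabarap, and 0.15 nM human His-ATG7. Values are IC50 or percent inhibition at one concentration.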

Sequence of recombinant human His-ATG7 enzyme (O95352 whole entry): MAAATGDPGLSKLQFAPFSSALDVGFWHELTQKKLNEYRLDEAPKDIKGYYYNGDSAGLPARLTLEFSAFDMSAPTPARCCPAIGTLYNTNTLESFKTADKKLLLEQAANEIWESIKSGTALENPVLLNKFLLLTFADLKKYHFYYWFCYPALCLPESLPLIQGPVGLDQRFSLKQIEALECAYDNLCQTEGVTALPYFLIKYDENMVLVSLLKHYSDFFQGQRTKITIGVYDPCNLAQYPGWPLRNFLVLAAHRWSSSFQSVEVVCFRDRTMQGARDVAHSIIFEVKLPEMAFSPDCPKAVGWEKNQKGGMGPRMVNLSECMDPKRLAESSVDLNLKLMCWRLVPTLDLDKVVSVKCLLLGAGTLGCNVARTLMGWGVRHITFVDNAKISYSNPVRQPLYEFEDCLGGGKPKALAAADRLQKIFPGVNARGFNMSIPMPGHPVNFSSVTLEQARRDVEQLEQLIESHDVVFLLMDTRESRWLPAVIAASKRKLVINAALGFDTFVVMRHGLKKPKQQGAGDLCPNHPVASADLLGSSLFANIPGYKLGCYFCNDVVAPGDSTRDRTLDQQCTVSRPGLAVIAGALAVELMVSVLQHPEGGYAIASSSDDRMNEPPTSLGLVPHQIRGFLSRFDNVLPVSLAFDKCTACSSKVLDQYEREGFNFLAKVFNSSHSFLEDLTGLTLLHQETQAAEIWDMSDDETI

Row | SMILES | pIC50 | inhibition at 0.123 µM [%] | inhibition at 0.111 µM [%]
1 | Nc1ncnc2c1c(-c1ccn[nH]1)nn2[C@@H]1O[C@H](COS(N)(=O)=O)[C@@H](O)[C@H]1O [Compound I-68, {(2R,3S,4R,5R)-5-[4-amino-3-(1H-pyrazol-5-yl)-1H-pyrazolo[3,4-d]pyrimidin-1-yl]-3,4-dihydroxytetrahydrofuran-2-yl}methyl sulfamate] | < 6.30 | 10 | –
2 | Cc1cccc(Sc2nn([C@@H]3O[C@H](COS(N)(=O)=O)[C@@H](O)[C@H]3O)c3ncnc(N)c23)c1 [Compound I-69, [(2R,3S,4R,5R)-5-{4-amino-3-[(3-methylphenyl)sulfanyl]-1H-pyrazolo[3,4-d]pyrimidin-1-yl}-3,4-dihydroxytetrahydrofuran-2-yl]methyl sulfamate] | > 7.70 | – | 86
3 | C=CCOc1nn([C@@H]2O[C@H](COS(N)(=O)=O)[C@@H](O)[C@H]2O)c2ncnc(N)c12 [Compound I-71, {(2R,3S,4R,5R)-5-[3-(allyloxy)-4-amino-1H-pyrazolo[3,4-d]pyrimidin-1-yl]-3,4-dihydroxytetrahydrofuran-2-yl}methyl Sulfamate] | 6.30 to 7.00 | 38 | –
4 | Nc1ncnc2c1c(SC1CNC1)nn2[C@@H]1O[C@H](COS(N)(=O)=O)[C@@H](O)[C@H]1O [Compound I-72, {(2R,3S,4R,5R)-5-[4-amino-3-(azetidin-3-ylsulfanyl)-1H-pyrazolo[3,4-d]pyrimidin-1-yl]-3,4-dihydroxytetrahydrofuran-2-yl}methyl sulfamate] | 7.00 to 7.30 | 65 | –
5 | Nc1ncnc2c1c(SCc1ccc(Cl)o1)nn2[C@@H]1O[C@H](COS(N)(=O)=O)[C@@H](O)[C@H]1O [Compound I-73, [(2R,3S,4R,5R)-5-(4-amino-3-{[(5-chloro-2-furyl)methyl]sulfanyl}-1H-pyrazolo[3,4-d]pyrimidin-1-yl)-3,4-dihydroxytetrahydrofuran-2-yl]methyl sulfamate] | 7.30 to 7.70 | 83 | –
6 | Cc1ccccc1Sc1nn([C@@H]2O[C@H](COS(N)(=O)=O)[C@@H](O)[C@H]2O)c2ncnc(N)c12 [Compound I-74, [(2R,3S,4R,5R)-5-{4-amino-3-[(2-methylphenyl)sulfanyl]-1H-pyrazolo[3,4-d]pyrimidin-1-yl}-3,4-dihydroxytetrahydrofuran-2-yl]methyl sulfamate] | 7.00 to 7.30 | 61 | –
7 | Nc1ncnc2c1c(OCCCl)nn2[C@@H]1O[C@H](COS(N)(=O)=O)[C@@H](O)[C@H]1O [Compound I-75, {(2R,3S,4R,5R)-5-[4-amino-3-(2-chloroethoxy)-1H-pyrazolo[3,4-d]pyrimidin-1-yl]-3,4-dihydroxytetrahydrofuran-2-yl}methyl Sulfamate] | 6.30 to 7.00 | 41 | –
8 | Nc1ncnc2c1c(OCc1ccccc1)nn2[C@@H]1O[C@H](COS(N)(=O)=O)[C@@H](O)[C@H]1O [Compound I-76, {(2R,3S,4R,5R)-5-[4-amino-3-(benzyloxy)-1H-pyrazolo[3,4-d]pyrimidin-1-yl]-3,4-dihydroxytetrahydrofuran-2-yl}methyl Sulfamate] | 6.30 to 7.00 | 31 | –
9 | CC(C)CSc1nn([C@@H]2O[C@H](COS(N)(=O)=O)[C@@H](O)[C@H]2O)c2ncnc(N)c12 [Compound I-77, {(2R,3S,4R,5R)-5-[4-amino-3-(isobutylsulfanyl)-1H-pyrazolo[3,4-d]pyrimidin-1-yl]-3,4-dihydroxytetrahydrofuran-2-yl}methyl sulfamate] | 7.30 to 7.70 | 85 | –
10 | Nc1ncnc2c1c(Sc1ccccc1Cl)nn2[C@@H]1O[C@H](COS(N)(=O)=O)[C@@H](O)[C@H]1O [Compound I-78, [(2R,3S,4R,5R)-5-{4-amino-3-[(2-chlorophenyl)sulfanyl]-1H-pyrazolo[3,4-d]pyrimidin-1-yl}-3,4-dihydroxytetrahydrofuran-2-yl]methyl sulfamate] | 7.30 to 7.70 | 80 | –
11 | Nc1ncnc2c1c(I)nn2[C@@H]1O[C@H](COS(N)(=O)=O)[C@@H](O)[C@H]1O [Compound I-79, [(2R,3S,4R,5R)-5-(4-amino-3-iodo-1H-pyrazolo[3,4-d]pyrimidin-1-yl)-3,4-dihydroxytetrahydrofuran-2-yl]methyl sulfamate] | > 7.70 | 85 | –
12 | CN(C)CCSc1nn([C@@H]2O[C@H](COS(N)(=O)=O)[C@@H](O)[C@H]2O)c2ncnc(N)c12 [Compound I-80, [(2R,3S,4R,5R)-5-(4-amino-3-{[2-(dimethylamino)ethyl]sulfanyl}-1H-pyrazolo[3,4-d]pyrimidin-1-yl)-3,4-dihydroxytetrahydrofuran-2-yl]methyl sulfamate] | 6.30 to 7.00 | 51 | –
13 | Cc1occc1Sc1nn([C@@H]2O[C@H](COS(N)(=O)=O)[C@@H](O)[C@H]2O)c2ncnc(N)c12 [Compound I-81, [(2R,3S,4R,5R)-5-{4-amino-3-[(2-methyl-3-furyl)sulfanyl]-1H-pyrazolo[3,4-d]pyrimidin-1-yl}-3,4-dihydroxytetrahydrofuran-2-yl]methyl sulfamate] | 7.00 to 7.30 | 69 | –
14 | Nc1ncnc2c1c(Sc1ccccc1)nn2[C@@H]1O[C@H](COS(N)(=O)=O)[C@@H](O)[C@H]1O [Compound I-82, {(2R,3S,4R,5R)-5-[4-amino-3-(phenylsulfanyl)-1H-pyrazolo[3,4-d]pyrimidin-1-yl]-3,4-dihydroxytetrahydrofuran-2-yl}methyl Sulfamate] | 7.30 to 7.70 | – | 80
15 | Nc1ncnc2c1c(SCC(F)(F)F)nn2[C@@H]1O[C@H](COS(N)(=O)=O)[C@@H](O)[C@H]1O [Compound I-83, [(2R,3S,4R,5R)-5-{4-amino-3-[(2,2,2-trifluoroethyl)sulfanyl]-1H-pyrazolo[3,4-d]pyrimidin-1-yl}-3,4-dihydroxytetrahydrofuran-2-yl]methyl sulfamate] | 7.30 to 7.70 | 82 | –
16 | Nc1ncnc2c1c(Sc1cccc3ccccc13)nn2[C@@H]1O[C@H](COS(N)(=O)=O)[C@@H](O)[C@H]1O [Compound I-84, {(2R,3S,4R,5R)-5-[4-amino-3-(1-naphthylsulfanyl)-1H-pyrazolo[3,4-d]pyrimidin-1-yl]-3,4-dihydroxytetrahydrofuran-2-yl}methyl sulfamate] | 7.00 to 7.30 | 62 | –
17 | Nc1ncnc2c1c(SC(F)F)nn2[C@@H]1O[C@H](COS(N)(=O)=O)[C@@H](O)[C@H]1O [Compound I-85, [(2R,3S,4R,5R)-5-{4-amino-3-[(difluoromethyl)sulfanyl]-1H-pyrazolo[3,4-d]pyrimidin-1-yl}-3,4-dihydroxytetrahydrofuran-2-yl]methyl sulfamate] | 7.30 to 7.70 | 77 | –
18 | Nc1ncnc2c1c(SCC1(O)CCCCC1)nn2[C@@H]1O[C@H](COS(N)(=O)=O)[C@@H](O)[C@H]1O [Compound I-86, [(2R,3S,4R,5R)-5-(4-amino-3-{[(1-hydroxycyclohexyl)methyl]sulfanyl}-1H-pyrazolo[3,4-d]pyrimidin-1-yl)-3,4-dihydroxytetrahydrofuran-2-yl]methyl Sulfamate] | 7.00 to 7.30 | 64 | –
19 | C[S+]([O-])c1nn([C@@H]2O[C@H](COS(N)(=O)=O)[C@@H](O)[C@H]2O)c2ncnc(N)c12 (stereo partly drawn) [Compound I-87, {(2R,3S,4R,5R)-5-[4-amino-3-(methylsulfinyl)-1H-pyrazolo[3,4-d]pyrimidin-1-yl]-3,4-dihydroxytetrahydrofuran-2-yl}methyl Sulfamate] | 7.00 to 7.30 | 58 | –
